System: S. aureus 29213
Assay: MIC by broth microdilution (NCCLS), S. aureus 29213
Type: cell-based
Settings: Staphylococcus aureus, strain S. aureus 29213, cation-adjusted Mueller-Hinton Broth, pH 7.2-7.3
Description: These assays have been performed following the description given in “Methods for dilution Antimicrobial Susceptibility Tests for Bacteria that Grow Aerobically, 4th ed.; Approved standard: NCCLS Document M7-A4; National Committee for Clinical Laboratory Standards: Villanova, Pa., USA, 1997”. Minimal inhibitory concentrations (MICs; mg/l) were determined in cation-adjusted Mueller-Hinton Broth (BBL) by a microdilution method following NCCLS guidelines (National Committee for Clinical Laboratory Standards. Methods for Dilution Antimicrobial Susceptibility). The pH of the test medium was 7.2-7.3.

Work on `COc1ccc2nccc(NCCNC[C@@H]3CN(c4ccc5c(c4)NC(=O)CS5)C(=O)O3)c2n1` [Example 201, 6-((R)-5-{[2-(6-methoxy-[1,5]naphthyridin-4-ylamino)-ethylamino]-methyl}-2-oxo-oxazolidin-3-yl)-4H-benzo[1,4]thiazin-3-one] yielded an MIC of no more than 0.063 µg/mL.

Source: patent US8114867B2, “Oxazolidinone antibiotic derivatives” (Actelion Pharmaceuticals Ltd, priority 2007, dated 2012)
